Drawing on ChEMBL document CHEMBL3301562, “MMV Box screening against Plasmodium falciparum protein kinases and aminoacyl tRNA synthetases”, this text covers IC50 for twelve molecules.

Holding throughout (assay type): functional
One assay has as its target T1, Proline--tRNA ligase (Plasmodium falciparum (isolate 3D7), UniProt Q8I5R7).
T1 sequence (Q8I5R7 whole entry): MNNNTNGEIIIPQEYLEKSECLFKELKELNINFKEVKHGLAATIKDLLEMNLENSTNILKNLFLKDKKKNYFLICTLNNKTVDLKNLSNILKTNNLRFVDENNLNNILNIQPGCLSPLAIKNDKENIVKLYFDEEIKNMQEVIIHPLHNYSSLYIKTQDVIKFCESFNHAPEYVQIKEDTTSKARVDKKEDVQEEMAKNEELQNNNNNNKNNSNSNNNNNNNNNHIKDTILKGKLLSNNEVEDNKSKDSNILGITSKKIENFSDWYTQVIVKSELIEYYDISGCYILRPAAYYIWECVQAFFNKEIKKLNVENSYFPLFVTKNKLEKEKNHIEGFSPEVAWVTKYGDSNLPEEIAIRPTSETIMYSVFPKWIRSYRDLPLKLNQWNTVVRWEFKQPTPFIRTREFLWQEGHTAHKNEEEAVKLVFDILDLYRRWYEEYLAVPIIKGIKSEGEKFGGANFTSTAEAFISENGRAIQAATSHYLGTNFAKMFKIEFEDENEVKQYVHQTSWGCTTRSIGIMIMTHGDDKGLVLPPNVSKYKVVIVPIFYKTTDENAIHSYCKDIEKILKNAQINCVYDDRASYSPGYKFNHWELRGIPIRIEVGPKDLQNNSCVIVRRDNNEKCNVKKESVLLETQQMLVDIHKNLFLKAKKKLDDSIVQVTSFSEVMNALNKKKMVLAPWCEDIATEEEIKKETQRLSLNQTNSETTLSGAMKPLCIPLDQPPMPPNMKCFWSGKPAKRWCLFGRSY
The experiment in a line: MMV: ProRS recombinant Plasmodium falciparum Prolyl-tRNA-synthetase, assay with yeast tRNA, ATP, and proline and 3 uM MMV malaria box compound, assay read out with kinase glo as % inhibition.

The target of assay [1] is T2, Putative uncharacterized protein pk7 (Plasmodium falciparum, UniProt O96214).
T2 sequence (O96214 whole entry): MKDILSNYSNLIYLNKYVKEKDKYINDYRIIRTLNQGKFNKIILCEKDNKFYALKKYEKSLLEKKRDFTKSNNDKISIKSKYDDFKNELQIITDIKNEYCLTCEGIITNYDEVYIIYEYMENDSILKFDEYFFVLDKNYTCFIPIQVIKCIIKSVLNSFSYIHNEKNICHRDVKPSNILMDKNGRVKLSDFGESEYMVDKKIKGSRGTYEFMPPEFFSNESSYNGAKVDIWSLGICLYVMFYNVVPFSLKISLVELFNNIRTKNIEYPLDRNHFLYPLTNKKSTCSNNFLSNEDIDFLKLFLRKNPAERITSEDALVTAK
The experiment in a line: Final concentrations were 1 uM ATP, 2 mM DTT, 20 mM MgCl2, 2 mM MnCl2, 0.01% BSA, and 6 ug/ml PK7, in a buffer of 20 mM Tris-HCl (pH 7.5). The enzyme itself was the only substrate present (since autophosphorylation occurs); 100 uM 1NA-PP1 was used as a control inhibitor. Incubation time was 3 hours.

For assay [2], the target named is Calcium-dependent protein kinase 1 (Plasmodium falciparum, UniProt P62344). The assay can be described thus: MMV: CDPK1 Protein kinase inhibition assay using recombinant PfCDPK1, syntide 2 peptide substrate, ATP and KinaseGlo to measure % inhibition at 1 uM MMV box compound. In general terms: Kinase-Glo measures the ATP left after a reaction by luminescence.
For assay [3], the target named is T3, Mitogen-activated protein kinase (Plasmodium falciparum, UniProt Q25917).
T3 sequence (Q25917 whole entry): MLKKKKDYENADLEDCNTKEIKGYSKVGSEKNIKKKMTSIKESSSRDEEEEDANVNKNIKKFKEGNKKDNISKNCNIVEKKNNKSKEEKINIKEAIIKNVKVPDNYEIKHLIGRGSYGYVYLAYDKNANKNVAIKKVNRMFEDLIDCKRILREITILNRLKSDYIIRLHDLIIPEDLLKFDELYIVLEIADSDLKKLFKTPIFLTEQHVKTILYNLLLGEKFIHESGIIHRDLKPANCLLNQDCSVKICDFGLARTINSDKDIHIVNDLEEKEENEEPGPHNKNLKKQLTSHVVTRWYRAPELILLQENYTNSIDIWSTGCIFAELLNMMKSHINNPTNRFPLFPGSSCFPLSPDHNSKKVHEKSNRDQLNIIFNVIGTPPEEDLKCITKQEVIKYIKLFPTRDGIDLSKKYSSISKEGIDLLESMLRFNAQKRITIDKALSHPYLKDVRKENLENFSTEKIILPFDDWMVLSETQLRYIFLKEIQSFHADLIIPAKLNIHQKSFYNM
The experiment in a line: Final concentrations were 1 uM ATP, 0.5 mM DTT, 1 mM MgCl2, 0.5 mg/mL BSA, and 10 ug/ml MAP2 in a buffer of 50 mM HEPES (pH 7.0). 0.5 mg/mL histone III-S served as the substrate (13); 100 uM AMP-PNP, an ATP analog, was used as a control inhibitor. Incubation time was 4 hours.

A further assay addresses Lysine--tRNA ligase (Plasmodium falciparum (isolate 3D7), UniProt Q8IDJ8). The assay can be described thus: MMV: KRS recombinant Plasmodium falciparum Lysyl-tRNA-synthetase, assay with yeast tRNA, ATP, and lysine and 3 uM MMV malaria box compound, assay read out with kinase glo as % inhibition.
The target in assay [4] is T4, Calcium-dependent protein kinase 4 (Plasmodium falciparum (isolate 3D7), UniProt Q8IBS5).
T4 sequence (Q8IBS5 whole entry): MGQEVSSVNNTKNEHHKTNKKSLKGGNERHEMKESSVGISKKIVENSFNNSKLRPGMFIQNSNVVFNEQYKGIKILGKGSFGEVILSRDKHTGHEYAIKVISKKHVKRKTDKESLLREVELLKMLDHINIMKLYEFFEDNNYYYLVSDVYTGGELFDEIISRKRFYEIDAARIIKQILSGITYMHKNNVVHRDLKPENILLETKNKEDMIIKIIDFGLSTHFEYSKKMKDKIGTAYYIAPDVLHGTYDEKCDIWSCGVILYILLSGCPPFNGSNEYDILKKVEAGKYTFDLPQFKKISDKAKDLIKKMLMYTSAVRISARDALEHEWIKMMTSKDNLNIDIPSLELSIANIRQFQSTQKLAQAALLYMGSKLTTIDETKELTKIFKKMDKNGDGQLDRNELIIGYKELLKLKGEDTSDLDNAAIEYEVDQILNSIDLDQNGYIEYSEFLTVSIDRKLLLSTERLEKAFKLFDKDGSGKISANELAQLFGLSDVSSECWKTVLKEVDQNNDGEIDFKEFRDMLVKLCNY
The experiment in a line: MMV: CDPK4 Protein kinase inhibition assay using recombinant PfCDPK4, syntide2 peptide substrate, ATP and KinaseGlo to measure % inhibition at 1 uM MMV box compound.

Assay [5] deals with T5, Cdk-related protein kinase 6 (Plasmodium falciparum, UniProt O77239).
T5 sequence (O77239 whole entry): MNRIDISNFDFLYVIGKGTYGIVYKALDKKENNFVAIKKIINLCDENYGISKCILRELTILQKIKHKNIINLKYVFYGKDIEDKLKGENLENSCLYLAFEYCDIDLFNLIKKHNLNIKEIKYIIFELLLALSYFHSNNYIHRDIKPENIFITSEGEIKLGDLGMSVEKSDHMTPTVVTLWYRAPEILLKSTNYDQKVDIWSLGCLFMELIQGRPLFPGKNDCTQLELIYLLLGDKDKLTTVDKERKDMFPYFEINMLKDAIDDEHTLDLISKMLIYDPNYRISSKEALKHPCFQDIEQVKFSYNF
The experiment in a line: Final concentrations were 1.5 uM ATP, 5 mM MnCl2, and 15 ug/ml PK6 in a buffer of 100 mM Tris-HCl (pH 7.5). 50 ug/mL MBP was provided as the substrate; 10 uM staurosporine was used as a control inhibitor. Incubation time was 3 hours and 40 minutes.The catalytic activity of each kinase was considered proportional to ATP consumed, as determined from measurements of residual [ATP] with the luciferase-based reagent Kinase-Glo (Promega) following incubation. Luminescence (proportional to residual [ATP]) was measured on the plate readers FLx800 (BioTek Instruments, Winooski, VT, USA) and MicroBeta2.

Chain of Calcium-dependent protein kinase 1 (P62344 whole entry): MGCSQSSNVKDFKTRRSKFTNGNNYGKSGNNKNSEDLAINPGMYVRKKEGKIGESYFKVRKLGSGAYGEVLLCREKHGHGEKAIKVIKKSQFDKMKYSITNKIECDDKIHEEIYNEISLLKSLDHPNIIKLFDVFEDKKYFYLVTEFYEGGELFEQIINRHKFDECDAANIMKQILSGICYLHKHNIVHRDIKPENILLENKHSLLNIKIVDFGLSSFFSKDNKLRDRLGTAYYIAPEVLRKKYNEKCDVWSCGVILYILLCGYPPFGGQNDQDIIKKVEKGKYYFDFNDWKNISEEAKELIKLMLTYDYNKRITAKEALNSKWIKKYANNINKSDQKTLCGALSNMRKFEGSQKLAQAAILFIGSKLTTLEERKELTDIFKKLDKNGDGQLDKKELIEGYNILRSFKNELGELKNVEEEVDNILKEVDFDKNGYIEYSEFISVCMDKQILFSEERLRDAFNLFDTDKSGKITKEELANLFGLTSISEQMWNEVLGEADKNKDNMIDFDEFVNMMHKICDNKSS
Chain of Lysine--tRNA ligase (Q8IDJ8 whole entry): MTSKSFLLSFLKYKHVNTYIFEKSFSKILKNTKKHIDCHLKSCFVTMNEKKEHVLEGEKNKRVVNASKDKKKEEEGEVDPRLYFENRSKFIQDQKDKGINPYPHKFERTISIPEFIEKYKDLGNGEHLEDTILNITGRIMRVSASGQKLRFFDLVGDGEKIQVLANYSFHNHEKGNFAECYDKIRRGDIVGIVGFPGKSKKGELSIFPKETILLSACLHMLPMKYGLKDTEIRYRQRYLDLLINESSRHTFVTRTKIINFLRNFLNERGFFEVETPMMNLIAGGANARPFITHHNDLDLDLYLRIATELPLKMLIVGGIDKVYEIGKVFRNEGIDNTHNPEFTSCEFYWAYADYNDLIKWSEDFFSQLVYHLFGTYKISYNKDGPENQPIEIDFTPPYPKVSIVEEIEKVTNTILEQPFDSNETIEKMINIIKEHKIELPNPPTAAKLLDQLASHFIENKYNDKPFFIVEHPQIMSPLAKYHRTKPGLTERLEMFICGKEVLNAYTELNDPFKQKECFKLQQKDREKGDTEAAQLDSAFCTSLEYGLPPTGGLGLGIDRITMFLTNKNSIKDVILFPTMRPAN

As for `O=C(NC1CCN(Cc2ccccc2)CC1)c1cc(-c2ccncc2)nc2ccc(Cl)cc12`, the 50% inhibitory concentration (IC50) (as a rule, the concentration at which inhibition is half-maximal) is more than 2.5 µM at Proline--tRNA ligase; more than 1 µM in assay [1]; more than 1 µM in assay [2]; more than 1 µM in assay [3]; more than 2.5 µM on Lysine--tRNA ligase; more than 1 µM in assay [4]. In assay [5], this molecule returned an IC50 of more than 1 µM.

`Clc1cc(Br)ccc1-c1ccc(CNCC2CCNCC2)o1`: the 50% inhibitory concentration (IC50) is more than 2.5 µM on Proline--tRNA ligase; more than 1 µM in assay [1]; more than 1 µM in assay [2]; more than 1 µM in assay [3]; more than 2.5 µM at Lysine--tRNA ligase; more than 1 µM in assay [4]. The molecule also gave a half-maximal inhibitory concentration (IC50) in assay [5] of more than 1 µM.

Turning to `Cc1cc(=O)oc2c1ccc1oc(C(=O)c3ccccc3)c(C)c12`, the half-inhibitory concentration (IC50) at Proline--tRNA ligase is more than 2.5 µM; in assay [1], more than 1 µM; in assay [2], more than 1 µM; in assay [3], more than 1 µM; on Lysine--tRNA ligase, more than 2.5 µM; in assay [4] it was more than 1 µM. Also, the IC50 in assay [5] was more than 1 µM.

For `CCN1CCN(c2c(C(=O)c3ccccc3)cnc3cc(OC)c(OC)cc23)CC1`, the IC50 at Proline--tRNA ligase is more than 2.5 µM; in assay [1] it was more than 1 µM; in assay [2], more than 1 µM; in assay [3], more than 1 µM; at Lysine--tRNA ligase it was more than 2.5 µM; in assay [4], more than 1 µM. The same molecule gave an IC50 in assay [5] of more than 1 µM.

On to `Cc1cc(Nc2cccc(F)c2)nc(NCc2ccccc2)n1`, for which the IC50 on Proline--tRNA ligase was more than 2.5 µM; in assay [1], more than 1 µM; in assay [2], more than 1 µM; in assay [3], more than 1 µM; at Lysine--tRNA ligase it was more than 2.5 µM; in assay [4], more than 1 µM. The IC50 in assay [5] is more than 1 µM.

In the case of `Oc1c(C(Nc2ccccn2)c2cccc(Oc3ccccc3)c2)ccc2cccnc12` (centres undefined), the IC50 on Proline--tRNA ligase is more than 2.5 µM; in assay [1], more than 1 µM; in assay [2], more than 1 µM; in assay [3], more than 1 µM; at Lysine--tRNA ligase, more than 2.5 µM; in assay [4] it was more than 1 µM. The molecule also yielded an IC50 in assay [5] of more than 1 µM.

Turning to `Cc1ccc(F)cc1NC(=O)c1cc(Cl)ccc1Nc1ccccc1`, the half-maximal inhibitory concentration (IC50) on Proline--tRNA ligase is more than 2.5 µM; in assay [1], more than 1 µM; in assay [2] it was more than 1 µM; in assay [3], more than 1 µM; at Lysine--tRNA ligase it was more than 2.5 µM; in assay [4], more than 1 µM. This molecule also displayed a 50% inhibitory concentration (IC50) in assay [5] of more than 1 µM.

Consider `COc1ccc(C2N(C)c3ccccc3N2C)cc1`, for which the IC50 on Proline--tRNA ligase was more than 2.5 µM; in assay [1] it was more than 1 µM; in assay [2], more than 1 µM; in assay [3], more than 1 µM; on Lysine--tRNA ligase it was more than 2.5 µM; in assay [4], more than 1 µM. This molecule also registered an IC50 in assay [5] of more than 1 µM.

Take `CCCCc1c(C)nc2c(OC)cccc2c1O`: the concentration for half-maximal inhibition (IC50) on Proline--tRNA ligase is more than 2.5 µM; in assay [1], more than 1 µM; in assay [2], more than 1 µM; in assay [3], more than 1 µM; on Lysine--tRNA ligase, more than 2.5 µM; in assay [4], more than 1 µM. This molecule came in with an IC50 in assay [5] of more than 1 µM.

Consider `CN(C)c1ccc(-c2nc3cc(N)ccc3[nH]2)cc1`, for which the 50% inhibitory concentration (IC50) was more than 2.5 µM on Proline--tRNA ligase; more than 1 µM in assay [1]; more than 1 µM in assay [2]; more than 1 µM in assay [3]; more than 2.5 µM on Lysine--tRNA ligase; more than 1 µM in assay [4]. In assay [5], this molecule yielded a concentration for half-maximal inhibition (IC50) of more than 1 µM.

Consider `O=[N+]([O-])c1ccc(C=NNc2nc3ccccc3[nH]2)cc1`, for which the IC50 on Proline--tRNA ligase was more than 2.5 µM; in assay [1], more than 1 µM; in assay [2] it was more than 1 µM; in assay [3], more than 1 µM; on Lysine--tRNA ligase, more than 2.5 µM; in assay [4], more than 1 µM. This molecule also came in with an IC50 in assay [5] of more than 1 µM.

In the case of `CC(Oc1ccc(NC(=O)c2cccs2)cc1)C(=O)c1ccc(Cl)cc1` (centres undefined), the IC50 was more than 2.5 µM on Proline--tRNA ligase; more than 1 µM in assay [1]; more than 1 µM in assay [2]; more than 1 µM in assay [3]; more than 2.5 µM at Lysine--tRNA ligase; more than 1 µM in assay [4]. In assay [5], the IC50 was more than 1 µM.
